Data taken from patent US9663764B2, “Generation of cardiomyocytes from human pluripotent stem cells” (Wisconsin Alumni Research Foundation, priority 2011, dated 2017).

Tests used:
Assay type in all cases: cell-based, human
[1] = test system: BMP2, BMP4 and NODAL expression in 19-9-11 ishcat-2 cells; experiment: RT-PCR of TGFβ pathway genes during CH-induced differentiation; conditions: upon 12 μM CH treatment
Experimental: RT-PCR and Quantitative RT-PCR: Total RNA was prepared with the RNeasy mini kit (QIAGEN) and treated with DNase (QIAGEN). 1 μg RNA was reverse transcribed into cDNA via Oligo (dT) with Superscript III Reverse Transcriptase (Invitrogen). Real-time quantitative PCR was done in triplicate with iQ SYBR Green SuperMix (Bio-Rad). RT-PCR was done with Gotaq Master Mix (Promega) and then subjected to 2% agarose gel electrophoresis. ACTB was used as an endogenous control. To determine whether canonical Wnt signaling requires TGFβ superfamily signaling to induce cardiogenesis, the inventors quantified cTnT+ cell generation in 19-9-11 […]-2 cells when Activin A and BMP4 signaling antagonists were presented during the first 24 hr of cardiomyocyte induction with 12 μM CH. All samples were treated with dox at 48 hours. […] To further investigate the role of TGFβ superfamily signaling in Wnt pathway-mediated cardiogenesis the inventors assessed Smad1/5 and Smad2 phosphorylation, downstream of BMP4 and Activin A signaling respectively. As expected, substantial Smad1/5 and Smad2 phosphorylation was detected in cells that had been treated with Activin A and BMP4 (FIGS. 9B and 10A).

[2] = test system: 19-9-11 and IMR90C4 iPSCs; experiment: Cardiac directed differentiation via small molecules on Synthemax plates, cTnT/MF20 flow cytometry; conditions: 12 μM CH at day 0 and 5 μM IWP4 at day 3, day 15
Experimental: cardiac directed differentiation via small molecules: Cells were dissociated and plated as described in the Activin/BMP4 protocol. When hPS cells maintained on Matrigel® or Synthemax plates achieved confluence, cells were treated with CH in RPMI/B27-insulin for 24 hr (day 0 to day 1). The medium was changed to RPMI/B27-insulin, followed by 2 μg/ml dox treatment at different times between day 1 and day 5 for transgenic cell lines. For genetically unmodified lines, 5 μM IWP2 (Tocris) or IWP4 (Stemgent) was added at day 3 and removed during the day 5 medium change. Cells were maintained in the RPMI/B27 starting from day 7, with the medium changed every 3 days.
Flow Cytometry: Cells were dissociated into single cells and then fixed with 1% paraformaldehyde for 20 min at room temperature and stained with primary and secondary antibodies in PBS plus 0.1% Triton X-100 and 0.5% BSA. For the cell proliferation assay, a 17-hour pulse of BrdU was performed to identify dividing cardiomyocytes (Zhang et al., Circ. Res. 104, e30-41 (2009)). Data were collected on a FACSCaliber flow cytometer (Beckton Dickinson) and analyzed using FlowJo.
While shRNA inhibition of β-catenin provides specific and facile temporal regulation of canonical Wnt signaling, this method requires genetic modification of the hPS cell line which limits its potential clinical utility. […]

[3] = test system: 19-9-11 shcat-2 and scramble lines; experiment: RT-PCR/qPCR gene expression in CH-treated 19-9-11 shcat-2 and scramble lines
Experimental: RT-PCR and Quantitative RT-PCR: Total RNA was prepared with the RNeasy mini kit (QIAGEN) and treated with DNase (QIAGEN). 1 μg RNA was reverse transcribed into cDNA via Oligo (dT) with Superscript III Reverse Transcriptase (Invitrogen). Real-time quantitative PCR was done in triplicate with iQ SYBR Green SuperMix (Bio-Rad). RT-PCR was done with Gotaq Master Mix (Promega) and then subjected to 2% agarose gel electrophoresis. ACTB was used as an endogenous control. To test whether induction of cardiomyocyte differentiation by GSK3 inhibitors requires β-catenin, the inventors treated the shcat-2 and scramble 19-9-11 lines with CH in mTeSR1 medium. While the shcat-2 line maintained an undifferentiated morphology, the scramble line appeared to undergo differentiation (FIG. 2E), similar to non-transduced lines treated with CH (FIGS. 1B and 2B). Induction of differentiation following CH treatment in the scramble control was further indicated by diminished SOX2 and NANOG expression at day 4 (FIG. 3C). […] After 4 days of CH treatment in mTeSR1, the percentage of cells expressing Oct4 decreased to 61% in the scramble line, while 98% of the shcat-2 cells expressed Oct4 (FIG. 3D). […] To better understand early mesoderm induction via GSK3 inhibition, the inventors analyzed expression of the early mesoderm gene T in scramble and shcat-2 19-9-11 lines. As CH concentration increased, the ratio of T expression in scramble to the shcat-2 line increased (FIG. 3E). Less than 2% of shcat-2 cells expressed brachyury upon exposure to different concentrations of CH treatment for 4 days.

[4] = test system: Smad1/5 and Smad2 phosphorylation in 19-9-11 ishcat cells; experiment: Smad1/5 and Smad2 phosphorylation, western blot; conditions: 12 μM CH treatment
Experimental: Western Blot Analysis: Cells were lysed in M-PER Mammalian Protein Extraction Reagent (Pierce) in the presence of Halt Protease and Phosphatase Inhibitor Cocktail (Pierce). Proteins were separated by 10% Tris-Glycine SDS/PAGE (Invitrogen) under denaturing conditions and transferred to a nitrocellulose membrane. After blocking with 5% milk in TBST, the membrane was incubated with primary antibody overnight at 4° C. The membrane was then washed, incubated with an anti-mouse/rabbit peroxidase-conjugated secondary antibody (1:1000, Cell Signaling) at room temperature for 1 hr, and developed by SuperSignal chemiluminescence (Pierce).
To determine whether canonical Wnt signaling requires TGFβ superfamily signaling to induce cardiogenesis, the inventors quantified cTnT+ cell generation in 19-9-11 ishcat-2 cells when Activin A and BMP4 signaling antagonists were presented during the first 24 hr of cardiomyocyte induction with 12 μM CH. All samples were treated with dox at 48 hours. […] To further investigate the role of TGFβ superfamily signaling in Wnt pathway-mediated cardiogenesis the inventors assessed Smad1/5 and Smad2 phosphorylation, downstream of BMP4 and Activin A signaling respectively. As expected, substantial Smad1/5 and Smad2 phosphorylation was detected in cells that had been treated with Activin A and BMP4 (FIGS. 9B and 10A).

With `Cc1c[nH]c(-c2cnc(NCCNc3ccc(C#N)cn3)nc2-c2ccc(Cl)cc2Cl)n1` [CH] the NODAL expression [1] was “transient upregulation”, the “BMP2 and BMP4 gene expression” value ([1]; throughout differentiation) was “gradually upregulated” and the “cTNT+ or MF20+ cells” value [2] was “approximately 85%”. The “expression of mesendoderm and early mesoderm genes MIXL1, GSC, T, WNT3A and MSX1” value ([3]; 12 μM CH for 4 days, scramble versus shcat-2) was “emerged in CH-treated scramble cells but not CH-treated shcat-2 cells”, the “ratio of T expression in scramble to the shcat-2 line” value ([3]; increasing CH concentration, 2 days, qPCR) was “increased” and the “SOX2 and NANOG expression” value ([3]; scramble control, CH treatment, day 4) was “diminished”. For the same molecule, the “SOX2 and NANOG expression” value ([3]; shcat-2 cells treated with CH) was “No significant differences” and the “Smad1/5 and Smad2 activation” value [4] was “levels comparable to those induced by Activin A and BMP4”.
